Here are results for one compound from US10828269B2, “Reducing muscle atrophy by administering astaxanthin” (FUJI CHEMICAL INDUSTRIES CO., LTD., priority 2004, dated 2020).

For series [1] the following is noted: relative to β-carotene; cited from earlier work.
Series [2] concerns Type II diabetic female db/db mice. In words: Onset of diabetic complication in db/db mice (urine albumin, urine 8-OHdG, blood glucose, kidney histopathology). In kind it is in vivo, mouse. Here is the method: Type II diabetic female db/db mice and non-diabetic db/m were purchased from Clea Japan, Inc. Mice were bred under the conditions with a 12 hours light-dark cycle at a temperature of 21° C. to 25° C. For acclimation, mice were fed CE-2 (Clea Japan, Inc.) with free access to water for one week. The mice were divided into three groups each consisting of 8 mice (non-diabetic db/m, diabetic db/db, and astaxanthin-administered db/db) and each group was bred with feed ad libitum. Mice in astaxanthin-administered group were fed a diet in which 0.02% astaxanthin in terms of free astaxanthin was compounded with CE-2. Each group was bred for 12 weeks, and body weight, blood glucose levels, 8-OHdG levels in urine, albumin levels in urine, and kidney histopathology, were measured. Astaxanthin used here was AstaReal (registered trademark, Fuji Chemical Industry Co., Ltd.) 50F, which is oil composed of astaxanthin fatty acid ester and triglycerides and contains 5% astaxanthin in terms of free astaxanthin.
FIG. 1 is a photomicrograph of glomerulus.

The conditions of series [3]: Takahashi Jiro et al, Rinsho Iyaku 2004; cited from earlier work.
Series [4] concerns Protein phosphatase 3, catalytic subunit gamma isoform. Description: GENEchip mRNA expression in gastrocnemius. In kind it is in vivo, rat. Conditions: probe 1398469_at. Here is the method: [The source words this procedure for another organism and reports this organism under the same test.] (§1) After the period of test breeding, kidney was removed and frozen at −80° C. Using an LM200 system (Olympus Corporation), the renal glomerulus was cut from kidney of mice while keeping low temperature. tRNA of renal glomerulus was extracted using tRNA extraction regent “Isogen” (produced by Nippon Gene Co., Ltd.), and then preparation of cRNA and hybridization were performed according to the Affymetrix GeneChip Eukaryotic Small Sample Target Labeling Assay Ver. II.
(§2) (1) Synthesis of first strand cDNA: 1 μL of total RNA solution and 1 of 5 μM T7-Oligo(dT) primer were mixed, heated at 70° C. for 6 minutes, and then cooled at 4° C. for 2 minutes. 3 μL of RT_Premix_1 (1.5 μL DEPC-treated water, 4 μL 5× First strand Buffer, 2 μL DTT (0.1 M), 1.5 μL dNTP Mix (10 mM), 1 μL RNase inhibitor (40 U/μL), and 2 μL Super-Script II (200 U/μL)) was added and reverse transcribed at 42° C. for 1 hour. The sample was heated at 70° C. for 10 minutes to inactivate Super Script II, and then cooled to 4° C. (2) Synthesis of second strand cDNA: 32.5 μl of SS_Premix_1 (91 μL DEPC-treated water, 30 μL 5× Second Strand Buffer, 3 μL dNTP (10 mM), 1 μL E. coli DNA ligase (10 U/μL); 4 μL E. coli DNA polymerase (10 U/μL), and 1 μL RNase H (2 U/μL)) was added to the first strand cDNA solution and allowed to react for 2 hours at 16° C. (3) To the resulting cDNA, was added 1 μL T4 DNA polymerase (5 U/μl) and allowed to react for 10 minutes at 16° C., and purified by ethanol precipitation. (4) In vitro transcription: To the dried double-stranded cDNA pellet, was added 10 μL of reagents (4 μL DEPC-treated water, 4 μL premixed NTPs, 1 μL 10× reaction buffer, and 1 μL 10× enzyme mix), and allowed to react at 37° C. in a water bath for 6 hours. (5) First cycle cRNA was purified using the RNeasy Mini Kit in accordance with the protocol in the handbook (QIAGEN). (6) Subsequently, for the amplification and labeling, the cRNA sample was mixed with random primers (0.2 μg/μL), treated at 70° C. for 10 minutes, cooled on ice for 2 minutes, 5 μL of RT_Premix_2 (5× First Strand Buffer, DTT (0.1 M), dNTP mix (10 mM), RNase inhibitor (40 U/μL), and SuperScript II (200 U/μL) was added, and allowed to react at 42° C. for 1 hour. (7) Next, Second Sstrand cDNA synthesis was carried out by adding 5 μM T7-Oligo(dT) promoter treating at 70° C. for 6 minutes, cooling at 4° C., and adding 62 μL of SS_Premix_2 (43 μL it DEPC-treated water, 15 μL 5× Second Strand Buffer, 1.5 μL dNTP mix (10 mM), and 2 μL E. coli DNA polymerase (10 U/μL)). (8) To the resulting cDNA, was treated added 1 μL of T4 DNA polymerase (5 U/μL), allowed to react at 16° C. for 10 minutes, and purified by ethanol precipitation. (9) To perform in vitro transcription and labeling with the ENZO BioArray High Yield RNA Transcript Labeling Kit, 40 μL of reagents (22 μL DEPC-treated solution, 4 μL 10×HY reaction buffer, 4 μL 10× biotin-labeled ribonucleotides, 4 μL 10×DTT, 4 μL 10× RNase to inhibition mix, and 2 μL 20× T7 RNA polymerase) were added, and allowed to react at 37° C. for 4 hours. (10) Labeled cRNA target was purified with RNeasy columns. (11) The fragmentation and hybridization were performed according to “GeneChip Expression Analysis Technical Manual”.
(§3) The prepared labeled cRNA was hybridized to a GeneChip “mouse Expression Set 430A, representing a total of 22,690 mouse transcripts” (Affymetrix). For data analysis, the GeneChip Analysis Suite Ver. 5.1 (Affymetrix) was used. All microarrays were scaled to a target intensity of 1000 and were compared with background, noise, and overall staining intensity. Differentially expressed transcripts were identified by algorithms of the software y Affymetrix.
(§4) 9-week-old Wistar male rats were bred each being fed a normal diet for breeding and water ad libitum under the conditions with a 12 hours light-dark cycle at a temperature of 21° C. to 25° C. and were accustomed to the environment in advance. […]

Series [5] relates to very low density lipoprotein receptor. In words: GENEchip mRNA expression in gastrocnemius. Conditions: probe 1369098_at. In kind it is in vivo, rat. How it is done: as §1, §2, §3, §4
For another series, the system named is RT1 class II, locus Ba. In words: GENEchip mRNA expression in gastrocnemius. In kind it is in vivo, rat. The conditions noted are these: probe 1377334_at.
[6] abbreviates: denervated left leg gastrocnemius, astaxanthin group vs control group.
[7] abbreviates: denervated left leg gastrocnemius, astaxanthin-administered group.
[8] abbreviates: right leg (control) gastrocnemius, astaxanthin group vs control group.
Setting [9] is: right leg (control) gastrocnemius, astaxanthin-administered group.

As to `CC1=C(/C=C/C(C)=C/C=C/C(C)=C/C=C/C=C(C)/C=C/C=C(C)/C=C/C2=C(C)C(=O)C(O)CC2(C)C)C(C)(C)CC(O)C1=O` (stereo not drawn) [astaxanthin, 3,3′-dihydroxy-β,β-carotene-4,4′-dione], the “antioxidant effect, times as strong as β-carotene” value in series [1] is recorded as “about 40 times”. The “Albumin level in urine” value in series [2] (at the end (12 weeks), db/db mice, diet with 0.02% astaxanthin (AstaReal 50F)) turned out to be 77.8 ± 44.6 mg/dL; in series [2] (at the start, astaxanthin-administered db/db mice) it was 46.2 ± 1.5 mg/dL. Besides, the blood glucose levels result in series [2] (diabetic db/db mice, diet with 0.02% astaxanthin, 12 weeks) is on record as “reduces blood glucose levels”. Further, the “enlargement of glomerular mesangium (microscope)” value in series [2] (kidney of db/db(Ax) vs db/db mice) is “apparently moderated”. In addition, the mutagenicity entry in series [3] is given as “has not been observed having any mutagenicity”. The “gene expression intensity ratio ad/nd” value in series [4] (setting [6]) is listed as 1.90; in series [5] (setting [6]), 1.49; with RT1 class II, locus Ba (setting [6]), 0.51. The luminescence intensity ad in series [4] (setting [7]) was 333.1; in series [5] (setting [7]), 318; in the series with RT1 class II, locus Ba (setting [7]), 312. The “gene expression intensity ratio ac/nc” value turned out to be 1.09 in series [4] (setting [8]); 1.00 in series [5] (setting [8]); 1.60 in the series with RT1 class II, locus Ba (setting [8]). Moreover, the luminescence intensity ac in series [4] (setting [9]) worked out at 523.6; in series [5] (setting [9]) it was 500.5; with RT1 class II, locus Ba (setting [9]), 220.5.
